Earlier results in patent US20190091218A1 (priority 2016, published 2019).
Read-outs that look alike come from different tables or passages of the source.

Tests used:
[1] = system: histamine induced wheal and flare
H1 receptor = H1 receptor (Homo sapiens, UniProt P35367); conditions: acidic pH
[2] = not given; remark: listed apart in the source
[3] = standard 10 mg oral dose

H1 receptor, sequence (P35367 whole entry): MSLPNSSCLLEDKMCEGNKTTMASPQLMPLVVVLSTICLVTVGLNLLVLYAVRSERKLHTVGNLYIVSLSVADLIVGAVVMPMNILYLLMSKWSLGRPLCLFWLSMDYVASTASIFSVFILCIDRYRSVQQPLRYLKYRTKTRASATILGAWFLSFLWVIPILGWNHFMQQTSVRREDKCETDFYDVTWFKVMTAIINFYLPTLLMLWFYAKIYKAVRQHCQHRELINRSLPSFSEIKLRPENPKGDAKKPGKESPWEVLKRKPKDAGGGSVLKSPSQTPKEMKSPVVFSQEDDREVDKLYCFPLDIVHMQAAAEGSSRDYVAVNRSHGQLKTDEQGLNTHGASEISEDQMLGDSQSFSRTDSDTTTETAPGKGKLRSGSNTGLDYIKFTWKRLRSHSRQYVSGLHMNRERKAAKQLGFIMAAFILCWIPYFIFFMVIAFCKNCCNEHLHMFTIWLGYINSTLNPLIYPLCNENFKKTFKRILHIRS

mean AUC [3] [ng/h/mL]	Structure (SMILES)	potency among modern generation antihistamines ([1]; histamine induced wheal and flare data)	effectiveness versus fexofenadine ([1]; levocetirizine 5 mg per day vs fexofenadine 180 mg per day)	time to steady state level (in vivo) [h]	peak concentration (repeated 5 mg once daily oral dose) [ng/mL]	peak concentration (single 5 mg oral dose) [ng/mL]	levels of HRV-induced increases in ICAM-1 (human rhinovirus (HRV); added before, after, or at the time of the HRV infection)	HRV-induced ICAM-1, cytokine expression, and viral replication (human rhinovirus (HRV); airway epithelial cells from nose and lung)	receptor affinity over first generation mepyramine (H1 receptor) [×]	dose that can be safely administered ([2]; studies in humans)	dose administered without clinically relevant side effects ([2]; adult patients, 22 weeks)	dose administered without clinically relevant side effects ([2]; short-term studies, approximately one week)
	O=C(O)COCCN1CCN([C@H](c2ccccc2)c2ccc(Cl)cc2)CC1 [levocetirizine]	most potent of the five modern generation antihistamines	more effective than fexofenadine	40	308	270	reduced	inhibit	5	up to 30 mg/day		
2689	CC(C)(O)c1ccccc1CC[C@@H](SCC1(CC(=O)O)CC1)c1cccc(/C=C/c2ccc3ccc(Cl)cc3n2)c1 [montelukast]										up to 200 mg/day	up to 900 mg/day
